The subject of data set [1] is subjects with geographic atrophy (GA) secondary to AMD. In words: Phase 1b single-dose dose-escalation intravitreal trial in geographic atrophy. The data set is classed as in vivo, human. How it is done:
To evaluate the safety and tolerability of a single-dose intravitreal (IVT) injection of 1 mg/0.1 mL and 2 mg/0.1 mL Fludrocortisone acetate (FCA) in subjects with geographic atrophy (GA) secondary to Age-Related Macular Degeneration (AMD).
Methods: This was a two-part dose-escalation prospective study. Part-1 involved a single participant treated with 1 mg/0.1 ml and monitored up to 28-days before being reviewed by a safety review committee. Two subsequent participants were then dosed with the same dose. Part-2 involved a single participant dosed with 2 mg/0.1 ml and monitored up to 28-days when a further 5 participants were dosed. All participants were followed up for 6-months after baseline.
A full ophthalmic assessment was performed at study visits which included GA area, best-corrected visual acuity (BCVA), low-luminance BCVA and intra-ocular pressure (IOP). Adverse events (AE) were reported from the first dose of FCA until the end-of-study visit.
This single-centre, phase 1b prospective, open-labeled, single-dose, dose-escalation clinical trial was conducted on 9 participants enrolled at a single site between August 2019 to April 2021. All patients were followed up for 6 months after baseline. Ethics approval was obtained before commencement and the trial was listed on the Australian and New Zealand Clinical Trial Registry (accessible via www.anzctr.org.au; ANZCTR no. 12618001308280). An independent data and safety committee provided oversight of the clinical trial. This study adhered to the tenets of the Declaration of Helsinki. Informed consent was obtained from all participants before enrolment into the study.
Fludrocortisone acetate was formulated for intravitreal administration as a powder solution for injection to ensure long-term stability similar to other cortico-steroids (15). Vials contained 10 mg of FCA powder and were reconstituted with sterile sodium chloride solution (0.9%) according to the appropriate dosage prior to injection.
Inclusion criteria referring the study eye were as follows: diagnosis of GA secondary to AMD confirmed using fundus autofluorescence (FAF) imaging, GA area between ≥1.9 and ≤17 mm2 (1 and 7 disc areas (DA) respectively), best corrected visual acuity (BCVA) of 24 letters or better using Early Treatment Diabetic Retinopathy Study (ETDRS) charts.
A full ophthalmic assessment was performed at each study visit which included GA area assessed through FAF imaging, BCVA, lower-luminance BCVA (LL-BCVA) and intra-ocular pressure (IOP). Participants were assessed at screening, baseline, day 1, day 7, day 14, day 28, day 60, day 90 and day 150 (end of study). Blood and urine samples were collected for safety analysis at screening, baseline, day 7, day 28 and day 150.
Part 1 of the study involved a single participant treated with 1 mg/0.1 ml FCA to assess safety and tolerability. This participant was followed-up for 28 days before the results were reviewed by an independent data safety monitoring committee (DSMB). Subsequent to approval by the DSMB, a further 2 participants were treated with 1 mg/0.1 ml FCA and followed-up for a further 28 days after treatment before commencement of part 2.
Part 2 involved a single dose of 2 mg/0.1 ml of FCA in a single participant and followed-up for 28 days like part 1. The DSMB reviewed the results prior to enrolment of the remaining 5 participants.
Fundus auto-fluorescence was captured using Heidelberg Spectralis (Heidelberg Engineering, Heidelberg, Germany). The assessment of GA size and progression was performed using FAF was performed by 2 graders (T.H and E.C.) in a blinded manner using Heidelberg region finder software version 2.6.2.0 (FIG. 1), a semi-automated program used to quantify atrophic areas. Baseline FAF images were defined and used to assess subsequent visits using the region finder software. In cases where there was a discrepancy of more than 20% between the two graders, a third grader (A.C.) evaluated the images. […]

Data set [2] has as its system Ccl2, Il-6, Il-8 expression in MIO-M1 cells. As to the kind of experiment: TNF-α stimulation of MIO-M1 cells, cytokine gene expression by QRT-PCR. The data set is classed as cell-based, human. Conditions: 1 μg/μl steroid, 1 ng/μl TNF-α, 12 h, versus TNF alone. The text has this: The immortalised retinal cells used were as follows: MIO-M1 cells (Muller cell-derived; Müller 1 Moorefields, Institute of Ophthalmology, Dr A. Limb, Institute of Ophthalmology, University College, UK); ARPE19 (RPE-derived; ATCC CRL-2302, American Tissue Culture Collection, VA, USA); and 661W cells (photoreceptor-like derived; kindly gifted by Dr Muayyad R. Al-Ubaidi, Department of Cell Biology, University of Oklahoma Health Sciences Centre, Oklahoma City, OK, USA). Cells were authenticated and validated from Cell Bank Australia.
IL-1β and TNF-α were administered to MIO-M1 cells to initiate an inflammatory response in order to test the anti-inflammatory properties of the selected corticosteroids. MIO-M1 cells were grown to a cell density of 50,000 cells per well in a 24 well plate using growth media and foetal bovine serum as described (Section 2.1.1). MIO-M1 cells were challenged with either 1 ng/μl of IL-1β or TNF-α (R&D Systems, MN, USA). Experimental wells were treated with either 1 μg/μl FA, TA or Dexamethasone. […]
Following purification of RNA, cDNA was synthesized using the Bioline Tetro kit (Bioline, Australia) as per the manufacturer's instructions. Quantitative Real Time Polymerase Chain Reaction (QRT-PCR) was undertaken to profile gene expression changes in animal and cell culture samples. […] Data was analysed using the QuantStudio 12K Flex Software (Applied Biosystems, USA).

Where [3] appears, read: fellow (uninjected) eye of treated participants, day 150.

Values joined by “and” are separate entries in the source; they are usually repeats but may differ in a detail not shown here. Equal entries are not always repeated. “Also recorded” adds a separate entry of the source.

`CC(=O)OCC(=O)[C@@]1(O)CC[C@H]2[C@@H]3CCC4=CC(=O)CC[C@]4(C)[C@@]3(F)[C@@H](O)C[C@@]21C` [FA, 9-α-Fluoro-11 β. 17 α, 21-trihydroxy-4-pregnene-3, 20 dione acetate]: the “loss of BCVA letters in the initial pilot participant” value in data set [1] (1 mg/ml, day 14, one participant, deemed most likely unrelated by the DSMB) is 22 letters. In addition, the “adverse event in one participant” value in data set [1] (2 mg/ml, after day 90, study eye, resolved after 1 week) is listed as “nasal subconjunctival haemorrhage”. Moreover, in data set [1] (all 9 participants), the “other adverse events throughout the study” value was “No other adverse events”. Moreover, the systemic adverse event result in data set [1] (dose escalation study, 9 participants) is recorded as “no systemic adverse event”. In data set [1] (setting [3]), the “BCVA mean change from baseline, fellow eye” value came to 4.88 ± 8.37 letters; the “IOP mean change from baseline, fellow eye” value is −0.625 ± 4.24 mmHg; the “LLVA mean change from baseline, fellow eye” value turned out to be 4.5 ± 11.49 letters. The “GA area mean change from baseline, fellow eye” value in data set [1] (fellow (uninjected) eye of treated participants, over 6 months, listed as FCA) is 0.62 mm^2 and 0.62 ± 4.49 mm^2. For the same compound, the “clinical safety and tolerability” value in data set [1] (intravitreal, patients with GA secondary to AMD) was “clinically safe and well-tolerated”. In data set [1] (single IVT 1 mg/0.1 ml or 2 mg/0.1 ml, 9 participants, 6 months), the “serious AEs (ocular or systemic)” value was “no serious AEs”. The “cataract development / lens opacity” value in data set [1] (single IVT 1 or 2 mg/0.1 ml, 6 months follow-up, no formal lens grading, listed as FCA) is listed as “no participants required/underwent cataract surgery; also recorded: not observed; also recorded: no evidence”. Also, the “increase of IOP” value in data set [1] (single IVT 1 or 2 mg/0.1 ml, study eye, 6 months follow-up, listed as FCA) is listed as “No significant increases; also recorded: not observed; also recorded: did not increase; also recorded: no evidence”. Also, the “IOP mean change from baseline, study eye” value in data set [1] (study eye, day 150 compared to baseline, listed as FCA) was −0.25 mmHg and −0.25 ± 4.06 mmHg. Besides, the “GA area mean change from baseline, study eye” value in data set [1] (study eye, over 6 months, FAF region finder, listed as FCA) was 0.5 mm^2 and 0.5 ± 5.69 mm^2. For the same compound, in data set [1] (throughout the study), the “changes in body temperature, heart rate, systolic or diastolic blood pressure” value is given as “no significant changes”. Moreover, in data set [2], the “Ccl2, Il-6, and Il-8 expression after TNF stimulation” value is listed as “significantly reduced; also recorded: drastically reduced; also recorded: significantly inhibited”.
